Measurements as given in patent US20240400560A1, “BICYCLIC HETEROCYCLIC DERIVATIVE HAVING VIRAL GROWTH INHIBITORY ACTIVITY AND PHARMACEUTICAL COMPOSITION CONTAINING SAME” (Shionogi & Co., Ltd., priority 2021, published 2024).

What was measured:
SARS-CoV-2 = test: Inhibitory activity of cytopathic effect (CPE) in Vero E6/TMPRSS2 cells; type: cell-based
SARS-CoV-2 3CL protease = SARS-CoV-2 3CL protease (Severe acute respiratory syndrome coronavirus 2, UniProt P0DTD1); test: Inhibitory activity test against SARS-CoV-2 3CL proteases; type: biochemical; details: read-out: IC50 (50% SARS-CoV-2 3CL protease inhibitory concentration)
[1] = Severe acute respiratory syndrome coronavirus 2, VeroE6/TMPRSS2, 72 h, 50% SARS-CoV-2 infected cell death inhibitory concentration, CellTiter-Glo 2.0 after 3 days culture
[2] = Severe acute respiratory syndrome coronavirus 2, VeroE6/TMPRSS2, 50% SARS-CoV-2 infected cell death inhibitory concentration, class symbols

Compound	EC50 (SARS-CoV-2; [1]) [nM]	IC50 (SARS-CoV-2 3CL protease) [nM]	EC50 (SARS-CoV-2; [2]) [nM]
CCOc1cc(-c2cc(C#N)ccc2Cl)cc2c1c(=O)n(-c1cncc(C)c1)c(=O)n2Cc1ccc(F)c(C#N)c1 [Compound I-0295]	426	15	
CC(=O)c1ccc(Cl)c(-c2ccc3c(=O)n(Cc4ccc[nH]c4=O)c(=O)n(Cc4cc(F)c(F)c(F)c4)c3c2)c1 [Compound I-0284]		< 100	1000 to 10000
COc1cc(-c2cc(C(C)=O)ccc2Cl)cc2c1c(=O)n(Cc1ncn(C)n1)c(=O)n2Cc1cc(F)c(F)c(F)c1 [Compound I-0116]	1750	12	
COc1cc(-c2cc3cn[nH]c3cc2Cl)cc2c1c(=O)n(-c1cncc(C)c1)c(=O)n2Cc1cc(F)c(F)c(C#N)c1 [Compound I-0166]		< 100	< 1000
COc1cc(-c2cc3c(cc2Cl)NC(=O)C3)cc2c1c(=O)n(Cc1ncn(C)n1)c(=O)n2Cc1cc(F)c(F)cc1F [Compound I-0273]		< 100	1000 to 10000
COc1cc(-c2cc(NS(C)(=O)=O)ccc2Cl)cc2c1c(=O)n(-c1cncc(C)c1)c(=O)n2Cc1ccc(F)c(C#N)c1 [Compound I-0072]	2430	10	
Cn1cnc(Cn2c(=O)c3c(F)cc(-c4cc5c(cc4Cl)NC(=O)C5)cc3n(Cc3cc(F)c(F)cc3F)c2=O)n1 [Compound I-0280]		< 100	1000 to 10000
COc1cc(-c2cc3c(cc2Cl)NC(=O)C3)cc2c1c(=O)n(-c1cncc(C)c1)c(=O)n2Cc1cc(Cl)c(F)cn1 [Compound I-0059]	335	2	
COc1cc(-c2cc(S(N)(=O)=O)ccc2Cl)cc2c1c(=O)n(-c1cncc(C)c1)c(=O)n2Cc1ccc(F)c(C#N)c1 [Compound I-0066]	11100	5	
CNC(=O)c1ccc(Cl)c(-c2ccc3c(=O)n(Cc4ccc[nH]c4=O)c(=O)n(Cc4cc(F)c(F)c(F)c4)c3c2)c1 [Compound I-0285]		< 100	1000 to 10000
COc1cc(-c2cc3c(cc2Cl)NC(=O)C3)cc2c1c(=O)n(-c1cncc(Cl)c1)c(=O)n2Cc1ccc(F)c(C#N)c1 [Compound I-0028]	10100	7.5	
COc1cc(-c2cc(C(N)=O)ccc2Cl)cc2c1c(=O)n(-c1cncc(C)c1)c(=O)n2Cc1ccc(F)c(C#N)c1 [Compound I-0029]	49800	7.8	
COc1cc(-c2cc(-c3cnn(C)c3)ccc2Cl)cc2c1c(=O)n(-c1cncc(C)c1)c(=O)n2Cc1ccc(F)c(C#N)c1 [Compound I-0074]	1830	12	
COc1cc(-c2cc(C#N)ccc2Cl)cc2c1c(=O)n(-c1cncc(C)c1)c(=O)n2Cc1cc(C#N)ccc1Cl [Compound I-0168]		< 100	< 1000
Cc1cncc(-n2c(=O)c3c(F)cc(-c4cc(C#N)ccc4Cl)cc3n(Cc3cc(F)c(F)c(F)c3)c2=O)c1 [Compound I-0049]		< 100	< 1000
COc1cc(-c2cc3cn[nH]c3cc2Cl)cc2c1c(=O)n(Cc1ncn(C)n1)c(=O)n2Cc1cc(F)c(F)c(F)c1F [Compound I-0048]	537	11	
COc1cc(-c2cc3c(cc2Cl)NC(=O)C3)cc2c1c(=O)n(Cc1ncn(C)n1)c(=O)n2Cc1cc(F)c(F)c(F)c1F [Compound I-0047]		< 100	1000 to 10000
Cn1cnc(Cn2c(=O)c3c(Cl)cc(-c4cc5c(cc4Cl)NC(=O)C5)cc3n(Cc3cc(F)c(F)c(F)c3)c2=O)n1 [Compound I-0003]	692	8.6	
COc1cc(-c2cc3c(cc2Cl)NC(=O)C3)cc2c1c(=O)n(Cc1ncn(C)n1)c(=O)n2Cc1cc(Cl)c(F)cc1F [Compound I-0266]		< 100	< 1000
Cc1cncc(-n2c(=O)c3c(Cl)cc(-c4cc5cn[nH]c5cc4Cl)cc3n(Cc3ccc(F)c(C#N)c3)c2=O)c1 [Compound I-0011]		< 100	< 1000

Compound	EC50 (SARS-CoV-2; [1]) [nM]	IC50 (SARS-CoV-2 3CL protease) [nM]	EC50 (SARS-CoV-2; [2]) [nM]
COc1cc(-c2cc(C(=O)NCCO)ccc2Cl)cc2c1c(=O)n(-c1cncc(C)c1)c(=O)n2Cc1ccc(F)c(C#N)c1 [Compound I-0194]		< 100	1000 to 10000
COc1cc(-c2cc(CO)ccc2Cl)cc2c1c(=O)n(Cc1ncn(C)n1)c(=O)n2Cc1cc(F)c(F)c(F)c1 [Compound I-0036]		< 100	1000 to 10000
COc1cc(-c2cc3c(cc2Cl)NC(=O)C3)cc2c1c(=O)n(Cc1ncn(C)n1)c(=O)n2Cc1cc(F)c(F)c(Cl)c1 [Compound I-0263]	736	0.99	
Cn1cnc(Cn2c(=O)c3c(Cl)cc(-c4cc5cn[nH]c5cc4Cl)cc3n(Cc3cc(F)c(F)c(F)c3)c2=O)n1 [Compound I-0015]		< 100	< 1000
COc1cc(-c2cc3c(cc2Cl)NC(=O)C3)cc2c1c(=O)n(-c1cncc(C)c1)c(=O)n2Cc1cc(C#N)c(F)cc1C [Compound I-0160]	670	0.73	
Cc1cncc(-n2c(=O)c3c(F)cc(-c4cc(C(N)=O)ccc4Cl)cc3n(Cc3cc(F)c(F)cc3F)c2=O)c1 [Compound I-0055]		< 100	< 1000
COc1cc(-c2cc3c(cc2Cl)NC(=O)C3)cc2c1c(=O)n(-c1cncc(Cl)c1)c(=O)n2Cc1cc(F)c(F)c(F)c1 [Compound I-0065]		< 100	< 1000
COc1cc(-c2cc(C#N)ccc2Cl)cc2c1c(=O)n(-c1cncc(Cl)c1)c(=O)n2Cc1ccc(F)c(C#N)c1 [Compound I-0033]	217	13	
Cc1cncc(-n2c(=O)c3c(Cl)cc(-c4cc(C(N)=O)ccc4Cl)cc3n(Cc3ccc(F)c(C#N)c3)c2=O)c1 [Compound I-0010]		< 100	1000 to 10000
COc1cc(-c2cc(C(=O)N(C)C)ccc2Cl)cc2c1c(=O)n(-c1cncc(C)c1)c(=O)n2Cc1ccc(F)c(C#N)c1 [Compound I-0200]		< 100	1000 to 10000
COc1cc(-c2cc3cn[nH]c3cc2Cl)cc2c1c(=O)n(-c1cncc(C)c1)c(=O)n2Cc1cc(C#N)c(F)cc1C [Compound I-0163]	273	1.1	
COc1cc(-c2cc(C#N)ccc2Cl)cc2c1c(=O)n(Cc1ncn(C)n1)c(=O)n2Cc1cc(F)c(F)c(F)c1F [Compound I-0053]	497	30	
COc1cc(-c2cc(C#N)ccc2Cl)cc2c1c(=O)n(-c1cncc(C)c1)c(=O)n2Cc1cc(C#N)c(F)cc1C [Compound I-0164]	80	1.2	
Cc1cncc(-n2c(=O)c3c(Cl)cc(-c4cc(C#N)ccc4Cl)cc3n(Cc3ccc(F)c(C#N)c3)c2=O)c1 [Compound I-0013]		< 100	< 1000
COc1cc(-c2cc(C(N)=O)ccc2Cl)cc2c1c(=O)n(Cc1ncn(C)n1)c(=O)n2Cc1cc(F)c(F)c(F)c1 [Compound I-0034]		< 100	1000 to 10000
Cc1cncc(-n2c(=O)c3c(F)cc(-c4cc(CO)ccc4Cl)cc3n(Cc3ccc(F)c(C#N)c3)c2=O)c1 [Compound I-0054]		< 100	< 1000
Cc1cncc(-n2c(=O)c3c(F)cc(-c4cc(C(N)=O)ccc4Cl)cc3n(Cc3cc(F)c(F)c(F)c3)c2=O)c1 [Compound I-0073]		< 100	< 1000
COc1cc(-c2cc(C(=O)NCCN(C)C)ccc2Cl)cc2c1c(=O)n(-c1cncc(C)c1)c(=O)n2Cc1ccc(F)c(C#N)c1 [Compound I-0190]		< 100	1000 to 10000
Cc1cncc(-n2c(=O)c3c(F)cc(-c4cc(C(N)=O)ccc4Cl)cc3n(Cc3ccc(F)c(C#N)c3)c2=O)c1 [Compound I-0051]		< 100	1000 to 10000
